Measured values reported in ChEMBL document CHEMBL5154935, “Design, Synthesis, and Biological Evaluation of Novel Evodiamine Derivatives as Potential Antihepatocellular Carcinoma Agents” (J Med Chem, 2022).
Activity calls are given as the source filed them. The calls are words filed in the database; no cut-off is given here.

Experiments:
[1] = test system: SK-HEP1; assay: Induction of cell cycle arrest in human SK-Hep1 cells assessed as accumulation at S phase at 40 nM treated for 24 hrs by PI staining based flow cytometry (reference value: 24.98 %); type: functional
[2] = test system: Huh-7; assay: Antiproliferative activity against human Huh-7 cells treated for 72 hrs by MTT assay; type: functional, cell-based; details: Huh-7, 72 h
[3] = test system: Huh-7; assay: Induction of cell cycle arrest in human Huh-7 cells assessed as accumulation at S phase at 40 nM treated for 24 hrs by PI staining based flow cytometry (reference value: 23.33 %); type: functional
[4] = test system: Huh-7; assay: Inhibition of cell migration in human Huh-7 cells at 3 to 18 nM incubated for 24 hrs by crystal violet staining based transwell assay; type: functional; details: dose 3-18 nM
[5] = test system: SK-HEP1; assay: Induction of cell cycle arrest in human SK-Hep1 cells assessed as accumulation at G1 phase at 10 nM treated for 24 hrs by PI staining based flow cytometry (reference value: 58.47 %); type: functional
[6] = test system: Huh-7; assay: Induction of apoptosis in human Huh-7 cells assessed as early apoptotic cells at 40 nM incubated for 24 hrs by annexin V-FITC/PI staining flow cytometry (reference value: 0.33 %); type: functional
[7] = Induction of apoptosis in rat HSC-T6 cells assessed as necrotic cells at 80 nM pretreated with TGFbeta-1 for 1 day followed by compound addition and measured after 24 hrs by flow cytometry (reference value: 0.56 %); type: functional
[8] = test system: SK-HEP1; assay: Induction of apoptosis in human SK-Hep1 cells assessed as early apoptotic cells at 10 nM incubated for 24 hrs by annexin V-FITC/PI staining flow cytometry (reference value: 0.30 %); type: functional
[9] = Induction of apoptosis in rat HSC-T6 cells assessed as early apoptotic cells at 40 nM pretreated with TGFbeta-1 for 1 day followed by compound addition and measured after 24 hrs by flow cytometry (reference value: 0.17 %); type: functional
[10] = test system: Huh-7; assay: Induction of mitochondrial membrane potential changes in human Huh-7 cells assessed as decrease in TMRE positive cells at 80 nM incubated for 24 hrs by TMRE staining based flow cytometry; type: functional, cell-based
[11] = Antiproliferative activity against human L02 cells treated for 72 hrs by MTT assay; type: toxicity, cell-based
[12] = Induction of apoptosis in rat HSC-T6 cells assessed as viable cells at 10 nM pretreated with TGFbeta-1 for 1 day followed by compound addition and measured after 24 hrs by flow cytometry (reference value: 97.5 %); type: functional; details: read-out: Activity
[13] = test system: HCC; assay: Inhibition of clonogenicity in human HCC cells assessed as decrease in number of colonies at 3 to 18 nM incubated for 1 to 2 weeks by optical microscopy analysis; type: functional, cell-based; details: dose 3-18 nM, time 1-2 weeks
[14] = test system: SK-HEP1; assay: Induction of cell cycle arrest in human SK-Hep1 cells assessed as accumulation at G1 phase at 80 nM treated for 24 hrs by PI staining based flow cytometry (reference value: 58.47 %); type: functional
[15] = test system: SK-HEP1; assay: Inhibition of cell invasion in human SK-HEP1 cells at 3 to 18 nM incubated for 24 hrs by matrigel based assay; type: functional; details: dose 3-18 nM
[16] = Induction of apoptosis in rat HSC-T6 cells assessed as necrotic cells at 10 nM pretreated with TGFbeta-1 for 1 day followed by compound addition and measured after 24 hrs by flow cytometry (reference value: 0.56 %); type: functional
[17] = test system: Huh-7; assay: Antiproliferative activity against human Huh-7 cells assessed as inhibition of cell viability treated for 24 to 72 hrs by MTT assay; type: functional, cell-based; details: time 24-72 hrs, DDE = dose-dependent effect
[18] = test system: HCCLM9; assay: Antiproliferative activity against human HCCLM9 cells treated for 72 hrs by MTT assay; type: functional, cell-based; details: HCCLM9, 72 h
[19] = test system: SK-HEP1; assay: Induction of apoptosis in human SK-Hep1 cells assessed as early apoptotic cells at 40 nM incubated for 24 hrs by annexin V-FITC/PI staining flow cytometry (reference value: 0.30 %); type: functional
[20] = test system: Huh-7; assay: Induction of cell cycle arrest in human Huh-7 cells assessed as accumulation at S phase at 10 nM treated for 24 hrs by PI staining based flow cytometry (reference value: 23.33 %); type: functional
[21] = test system: SK-HEP1; assay: Induction of apoptosis in human SK-Hep1 cells assessed as late apoptotic cells at 80 nM incubated for 24 hrs by annexin V-FITC/PI staining flow cytometry (reference value: 1.13 %); type: functional
[22] = test system: Huh-7; assay: Induction of apoptosis in human Huh-7 cells assessed as late apoptotic cells at 40 nM incubated for 24 hrs by annexin V-FITC/PI staining flow cytometry (reference value: 1.33 %); type: functional
[23] = Induction of apoptosis in rat HSC-T6 cells assessed as late apoptotic cells at 40 nM pretreated with TGFbeta-1 for 1 day followed by compound addition and measured after 24 hrs by flow cytometry (reference value: 1.76 %); type: functional
[24] = test system: Huh-7; assay: Induction of apoptosis in human Huh-7 cells assessed as necrotic cells at 80 nM incubated for 24 hrs by annexin V-FITC/PI staining flow cytometry (reference value: 1.08 %); type: functional
[25] = test system: SK-HEP1; assay: Inhibition of cell migration in human SK-HEP1 cells at 3 to 18 nM incubated for 24 hrs by crystal violet staining based transwell assay; type: functional; details: dose 3-18 nM
[26] = Induction of apoptosis in rat HSC-T6 cells assessed as late apoptotic cells at 10 nM pretreated with TGFbeta-1 for 1 day followed by compound addition and measured after 24 hrs by flow cytometry (reference value: 1.76 %); type: functional
[27] = test system: Huh-7; assay: Induction of apoptosis in human Huh-7 cells assessed as late apoptotic cells at 80 nM incubated for 24 hrs by annexin V-FITC/PI staining flow cytometry (reference value: 1.33 %); type: functional
[28] = Induction of apoptosis in rat HSC-T6 cells assessed as late apoptotic cells at 80 nM pretreated with TGFbeta-1 for 1 day followed by compound addition and measured after 24 hrs by flow cytometry (reference value: 1.76 %); type: functional
[29] = Induction of apoptosis in rat HSC-T6 cells assessed as necrotic cells at 40 nM pretreated with TGFbeta-1 for 1 day followed by compound addition and measured after 24 hrs by flow cytometry (reference value: 0.56 %); type: functional
[30] = test system: Huh-7; assay: Induction of apoptosis in human Huh-7 cells assessed as chromatin agglutination incubated for 24 hrs by Giemsa staining based microscopy; type: functional, cell-based; details: dose 12-60 nM, DDE = dose-dependent effect
[31] = test system: Huh-7; assay: Induction of cell cycle arrest in human Huh-7 cells assessed as accumulation at S phase at 80 nM treated for 24 hrs by PI staining based flow cytometry (reference value: 23.33 %); type: functional
[32] = test system: Huh-7; assay: Induction of apoptosis in human Huh-7 cells assessed as early apoptotic cells at 80 nM incubated for 24 hrs by annexin V-FITC/PI staining flow cytometry (reference value: 0.33 %); type: functional
[33] = Induction of apoptosis in rat HSC-T6 cells assessed as early apoptotic cells at 10 nM pretreated with TGFbeta-1 for 1 day followed by compound addition and measured after 24 hrs by flow cytometry (reference value: 0.17 %); type: functional
[34] = test system: Huh-7; assay: Inhibition of cell migration in human Huh-7 cells incubated for 24 hrs by scratch wound healing assay; type: functional, cell-based; details: dose 3-18 nM, DDE = dose-dependent effect
[35] = test system: Huh-7; assay: Induction of apoptosis in human Huh-7 cells assessed as viable cells at 10 nM incubated for 24 hrs by annexin V-FITC/PI staining flow cytometry (reference value: 97.3 %); type: functional; details: read-out: Activity

SMILES: O=C1c2cc(F)cc(F)c2N(c2cccc(F)c2)C2c3[nH]c4ccc(O)cc4c3CCN12 (stereo not given)
- Activity [1]: 4.11%
- IC50 [2]: 40 nM
- Activity [3]: 21.24%
- inhibition [4]: Active
- Activity [5]: 54.93%
- Activity [6]: 2.51%
- Activity [7]: 3.62%
- Activity [8]: 0.91%
- Activity [9]: 0.14%
- Activity [10]: Active
- IC50 at 72 h [11]: 780 nM
- viability at 0.01 µM [12]: 94%
- inhibition [13]: Active
- Activity [14]: 11.58%
- inhibition [15]: Active
- Activity [16]: 0.8%
- Activity [17]: Dde
- IC50 [18]: 110 nM
- Activity [19]: 8.02%
- Activity [20]: 26.7%
- Activity [21]: 15.4%
- Activity [22]: 13.5%
- Activity [23]: 10.4%
- Activity [24]: 9.82%
- inhibition [25]: Active
- Activity [26]: 5.1%
- Activity [27]: 30%
- Activity [28]: 41.8%
- Activity [29]: 1.11%
- Activity [30]: Dde
- Activity [31]: 10.85%
- Activity [32]: 1.71%
- Activity [33]: 0.084%
- inhibition [34]: Dde
- viability at 0.01 µM [35]: 93.1%

SMILES: CC(=O)Oc1ccc2[nH]c3c(c2c1)CCN1C(=O)c2cc(F)cc(F)c2N(c2cccc(F)c2)C31 (stereo not given)
- Activity [1]: 4.18%
- IC50 [2]: 30 nM
- Activity [3]: 21.48%
- inhibition [4]: Active
- Activity [5]: 62.52%
- Activity [6]: 1.37%
- Activity [7]: 4.44%
- Activity [8]: 5.25%
- Activity [9]: 0.32%
- Activity [10]: Active
- IC50 at 72 h [11]: 950 nM
- viability at 0.01 µM [12]: 89.9%
- inhibition [13]: Active
- Activity [14]: 19.76%
- inhibition [15]: Active
- Activity [16]: 0.93%
- Activity [17]: Dde
- IC50 [18]: 100 nM
- Activity [19]: 8.25%
- Activity [20]: 34.56%
- Activity [21]: 19.5%
- Activity [22]: 25.6%
- Activity [23]: 12.8%
- Activity [24]: 9.88%
- inhibition [25]: Active
- Activity [26]: 8.67%
- Activity [27]: 29.4%
- Activity [28]: 53%
- Activity [29]: 1.29%
- Activity [30]: Dde
- Activity [31]: 8.43%
- Activity [32]: 1.1%
- Activity [33]: 0.52%
- inhibition [34]: Dde
- viability at 0.01 µM [35]: 93.8%
